Patent US20210220184A1, “ABSORBENT TAMPON FOR TREATMENT OF MENSTRUAL SYMPTOMS” (Anne's Day Ltd, priority 2018, published 2021)

Test system: women with a history of mild or sever dysmenorrhea
Experiment: Clinical study of tampon with CBD (randomized, controlled, crossover, two menstrual cycles; questionnaire and diary data)
Type: in vivo
Conditions: tests performed by the inventors; cannabidiol provided on the tampon
Description: The following study was performed to assess the safety and efficacy of a tampon covered with CBD oil.
Patients and Samples. A total of 130 women aged between 18 and 42 with a history of mild or sever dysmenorrhea were recruited for this study.
Study design. […] Patients were divided into two groups. One group used a hemp, CBD-infused tampon. The tampon contained […] of CBD oil. The tampon consisted of highly absorbent organic hemp fibers and organic hemp overwrap, organic cotton stitching thread and organic cotton removal cord, and a layer of CBD oil sprayed on top of the hemp overwrap. A second group used a standard off-the-shelf tampon product as a control. The off-the-shelf tampon consisted of blended rayon and viscose fibers with a non-woven rayon overwrap, cotton stitching thread and removal cord.
In a first visit, a patient underwent a gynecological exam and had blood drawn to test for STIs. If the patient fit inclusion criteria, in a second visit, the patient was divided into an experimental group or control group. A control test for levels of CBD in the bloodstream was performed on all participants and the results recorded. All participants were given diaries and instructed to write a detailed account of the comfort of tampon insertion and removal, comfort of wear, and levels of pain experienced. […]

Compound: C=C(C)[C@@H]1CCC(C)=C[C@H]1c1c(O)cc(CCCCC)cc1O [cannabidiol]
- vaginal delivery from the tampon to treat symptoms associated with menstruation: can be delivered vaginally
